Read-outs that look alike come from different tables or passages of the source.
Legend:
[1] = tested on: K562 cells; test: Cell viability, Cell Titer Glo 2.0 assay, K562; conditions: 72 hours
Description: Compounds described herein were screened for toxicity in K562 (human chronic myelogenous leukemia) and SH-SY5Y (human neuroblastoma) cells using a Cell Titer Glo 2.0 assay.
• Promega CellTiter-Glo® 2.0 Cell Viability Assay (cat #G9241) • Corning 384-well TC-treated microplates (cat #3570)
Cells were plated at 500 cells/well (K562 cells) in 45 μL of IMDM supplemented with 10% FBS in a 384-well opaque plate. Wells containing only medium were used as a blank control. Test compounds (e.g., compounds of Formula (I) or (II)) were first serially diluted in DMSO then diluted 1:100 with IMDM+10% FBS. The final concentration of DMSO was 0.1% in each well. The cells were incubated for 72 hours at 37° C. and 5% CO2 before assaying with Cell Titer Glo 2.0 reagent.

[2] = tested on: HTT mRNA; test: Splicing RT-qPCR assay, HTT canonical (CJ) and alternative (AJ) junction mRNA; assay type: cell-based, human; conditions: Homo sapiens; for IC50: canonical junction mRNA; for AC50: alternative junction mRNA, read-out: HTT AJ (AC50, increase in AJ mRNA)
Procedure, shortened: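 A673 or K562 cells were treated for 24 h at 37 °C with an 11-point 3-fold compound dilution series (top final 10 uM, DMSO ≤0.25%). Lysates then went to one-step TaqMan RT-qPCR quantifying canonical (CJ) and alternative-exon (AJ) junction transcripts, normalized to a housekeeping gene.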

[3] = tested on: HiBiT-tagged HTT protein; test: HiBiT protein abundance assay, HTT (K562 HiBiT knock-in); assay type: cell-based, human; conditions: HiBiT knock-in cells, 24 hours
Procedure, shortened: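 Endogenously HiBiT-tagged K562 knock-in lines treated 24 h at 37 °C with 10-point 3-fold dilutions (top 10 μM final, DMSO ≤0.25%) in IMDM+1% FBS. Lytic Nano-Glo luminescence normalized to DMSO and unmodified K562 controls; four-parameter fit gives 50%-abundance concentration (IC50).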

[4] = tested on: Target C; test: HiBiT protein abundance assay, Target C (K562 HiBiT knock-in); assay type: cell-based, human; conditions: HiBiT knock-in cells, 24 hours
Procedure, shortened: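 K562 HiBiT knock-in cells (10000/well) in IMDM + 1% FBS were treated for 24 h at 37° C. with a 10-point 3-fold dilution series (top 10 μM final), with DMSO ≤0.25%. Unmodified K562 served as baseline. HiBiT lytic luminescence was normalized to controls, and IC50 was interpolated at 50% from a four-parameter fit.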

[5] = 24 h, RT-qPCR, A673 or K562 cells, 24 hours treatment, read-out: HTT CJ (IC50, decrease in CJ mRNA)
[6] = qPCR panel, read-out: HTT CJ (decrease in CJ mRNA levels, IC50)
[7] = RT-qPCR, A673 or K562 cells, 24 hours treatment

| Structure (SMILES) | Effect on Cell Viability, K562 [1] | IC50 [2, 5] [nM] | IC50 [2, 6] [nM] | AC50 [2, 7] [nM] | IC50 [3] [nM] | IC50 [4] [nM] |
| --- | --- | --- | --- | --- | --- | --- |
| CC1CN(c2cnc3nc(-c4cc(F)c5nn(C)cc5c4)cc(Cl)c3c2)CCN1 (stereo not drawn) [Compound 203, 4-chloro-2-(7-fluoro-2-methyl-2H-indazol-5-yl)-6-(3-methylpiperazin-1-yl)-1,8-naphthyridine 2,2,2-trifluoroacetate] | B (100-1000 nM) | 100 to 1000 | 100 to 1000 | 1000 to 10000 | 100 to 1000 | 1000 to 10000 |
| C[C@@H]1CN(c2cnc3nc(-c4cc(F)c5nn(C)cc5c4)cc(Cl)c3c2)C[C@H](C)N1 [Compound 215] | B (100-1000 nM) | 1000 to 10000 | 1000 to 10000 | 1000 to 10000 | 1000 to 10000 | 1000 to 10000 |
| CNC1CCN(c2cnc3nc(-c4cc5cn(C)nc5c(C)c4O)nc(OC)c3c2)C1 (stereo not drawn) [Compound 161, 5-{4-methoxy-6-[3-(methylamino)pyrrolidin-1-yl]pyrido[2,3-d]pyrimidin-2-yl}-2,7-dimethylindazol-6-ol] | – | 100 to 1000 | 100 to 1000 | 100 to 1000 | 100 to 1000 | 100 to 1000 |
| C[C@H]1CN(c2cnc3nc(-c4cc(F)c5nn(C)cc5c4)cc(Cl)c3c2)C[C@H](C)N1 [Compound 250] | A (<100 nM) | 100 to 1000 | 100 to 1000 | 100 to 1000 | 100 to 1000 | 100 to 1000 |
| Cn1cc2cc(-c3cc(Cl)c4cc(N5CCNCC5)cnc4n3)c(O)cc2n1 [Compound 102, 5-[4-chloro-6-(piperazin-1-yl)-1,8-naphthyridin-2-yl]-2-methylindazol-6-ol] | B (100-1000 nM) | 100 to 1000 | 100 to 1000 | 100 to 1000 | 100 to 1000 | 100 to 1000 |
| C[C@@H]1CN(c2cnc3nc(-c4cc(F)c5nn(C)cc5c4)cc(Cl)c3c2)C[C@@H](C)N1 [Compound 251] | B (100-1000 nM) | 1000 to 10000 | 1000 to 10000 | 1000 to 10000 | 1000 to 10000 | 1000 to 10000 |
| CN[C@@H]1CCN(c2cnc3nc(-c4cc5cn(C)nc5c(F)c4O)cc(Cl)c3c2)C1 [Compound 271] | A (<100 nM) | < 100 | < 100 | < 100 | < 100 | < 100 |
| Cn1cc2cc(-c3ccc4cc(N5CC[C@@H](NC(C)(C)C)C5)cnc4n3)c(O)cc2n1 [Compound 199] | – | 1000 to 10000 | 1000 to 10000 | 1000 to 10000 | 1000 to 10000 | 1000 to 10000 |
| CNC1CCN(c2cnc3nc(-c4cc5cn(C)nc5c(C)c4O)cc(OC)c3n2)C1 (stereo not drawn) [Compound 194, 5-{8-methoxy-2-[3-(methylamino)360pyrrolidine-1-yl]pyrido[2,3-b]pyrazin-6-yl}-2,7-dimethylindazol-6-ol] | – | 1000 to 10000 | 1000 to 10000 | > 10000 | 1000 to 10000 | 1000 to 10000 |
| Cc1cn2nc(-c3ccc4cc(N(C)C5CCNCC5)cnc4n3)cc(C)c2n1 [Compound 205, 7-{2,8-dimethylimidazo[1,2-b]pyridazin-6-yl}-N-methyl-N-(piperidin-4-yl)-1,8-naphthyridin-3-amine] | – | > 10000 | > 10000 | > 10000 | > 10000 | > 10000 |
| COc1nc(-c2cc3cn(C)nc3c(C)c2O)nc2ncc(N3CCNCC3)cc12 [Compound 162, 5-[4-methoxy-6-(piperazin-1-yl)pyrido[2,3-d]pyrimidin-2-yl]-2,7-dimethylindazol-6-ol] | – | 100 to 1000 | 100 to 1000 | 100 to 1000 | 100 to 1000 | 100 to 1000 |
| CNC1CCN(c2cnc3nc(-c4cc5cn(C)nc5c(C)c4O)cc(Cl)c3n2)C1 (stereo not drawn) [Compound 193, 5-{8-chloro-2-[3-(methylamino)355pyrrolidine-1-yl]pyrido[2,3-b]pyrazin-6-yl}-2,7-dimethylindazol-6-ol] | – | 100 to 1000 | 100 to 1000 | 100 to 1000 | 100 to 1000 | 100 to 1000 |
